Test results taken from US20160263005A1, “TOPICAL COMPOSITIONS AND METHODS FOR SKIN LIGHTENING” (AVON PRODUCTS, INC., priority 2014, published 2016).

System: Human epidermal melanocytes from dark-pigmented skin
Experiment: Melanin content in human epidermal melanocytes after 8 days of incubation (absorbance at 405 nm)
Assay type: cell-based
Conditions: for % Pigmentation (percent change of melanin absorbance relative to vehicle control): 8 days of incubation; for Effect on pigmentation, in words: at the concentrations of Table 1
Description: The Compound of Formula (II) was examined for its ability to reduce pigmentation in vitro in human melanocytes. Human epidermal melanocytes from dark-pigmented skin were seeded in 6-well dishes and grown using commercially available Medium 254, a sterile, liquid medium prepared with 200 μM calcium chloride for the culture of human epidermal melanocytes, supplemented with 1% Penicillin/Streptomycin and 1% Human Melanocyte Growth Supplement. Corresponding controls were maintained without histamine, Diphenylhydramine HCl and Compound II. Four replicates were tested for each combination. After 8 days of incubation, melanin was collected and processed by washing the wells with 1× phosphate-buffered saline (PBS), followed by addition of 200 μL of 2M NaOH to three of the four replicates, which are then scraped, pooled and boiled at 80° C. for an hour. Melanin absorption was then measured at 405 nm using a spectrophotometer.
A larger (positive or negative) percent change indicates a larger increase or reduction in melanin.

| SMILES | % Pigmentation (percent change of melanin absorbance relative to vehicle control) (0.0001%) [%] | % Pigmentation (percent change of melanin absorbance relative to vehicle control) (0.001%) [%] | Effect on pigmentation, in words | % Pigmentation (percent change of melanin absorbance relative to vehicle control) (5 μM) [%] |
| --- | --- | --- | --- | --- |
| NC(=O)COc1ccc(C(=O)NCc2ccc(CN3CCCCC3)cc2)cc1 [Compound (II)] | −28.30 | −75.25 | effective to reduce pigmentation |  |
| NCCc1c[nH]cn1 [Histamine, reference compound] |  |  | significant increase in pigmentation | 58.75 |
